How the values were obtained:
Format in all cases: biochemical, pig
isocitrate dehydrogenase [1] = biological target: T1, isocitrate dehydrogenase (Sus scrofa, UniProt P33198); test: Amperometric ICDH activity with lead-containing whole blood samples
T1 construct: purchased Sigma, St. Louis, Mo; ICD Type VI
T1 sequence (P33198 9-421): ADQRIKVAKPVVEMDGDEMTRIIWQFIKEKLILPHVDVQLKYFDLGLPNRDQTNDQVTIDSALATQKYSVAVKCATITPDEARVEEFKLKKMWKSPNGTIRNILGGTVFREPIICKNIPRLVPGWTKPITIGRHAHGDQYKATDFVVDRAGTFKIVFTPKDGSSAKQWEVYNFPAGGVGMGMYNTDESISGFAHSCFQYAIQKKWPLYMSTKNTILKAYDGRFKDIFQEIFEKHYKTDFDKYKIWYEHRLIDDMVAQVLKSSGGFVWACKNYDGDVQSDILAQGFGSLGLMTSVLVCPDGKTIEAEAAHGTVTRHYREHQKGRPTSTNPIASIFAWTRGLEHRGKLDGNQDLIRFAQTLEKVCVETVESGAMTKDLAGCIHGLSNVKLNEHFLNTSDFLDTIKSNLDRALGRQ
From the text: The present invention concerns approaches to and methods for determining lead ion levels in whole blood. […] Isocitrate dehydrogenase for example is inhibited by lead. […] This is likely due to binding of lead by blood proteins such as albumin or other proteins, although it is also possible that the enzyme is stabilized by an unidentified blood component.

isocitrate dehydrogenase [2] = biological target: T1, isocitrate dehydrogenase; test: Amperometric lead inhibition of ICDH in homogeneous aqueous solution (Example 1); conditions: pH 8.5 Tris; for Current: 0 V
Description: Pig heart NADP-linked isocitric dehydrogenase (ICD, EC 1.1.1.42), an oxidoreductase, is sensitive to trace levels of lead ion as low as 1 μg/dl. […] In fact, at low concentrations of activator, e.g., <200 ppb Mn^++, the activity of ICD is proportional to Mn^++ and may be used to determine activator concentration (Guilbault, 1970). Inactivation by inhibitors is useful for determining inhibitor concentration. Specificity of enzymes for activators, or inhibitors, is not as great as for the natural substrate of the enzyme, but in some cases inhibitor concentration may be selectively determined. Silver and mercury have been determined in the presence of each other using isocitrate dehydrogenase (Mealor and Townshend, 1968). However, until now, there has been no satisfactory rapid amperometric method to determine lead ion based on ICD inhibition, much less a simple method to determine low lead ion concentrations in whole blood.
The following example illustrates determination of trace amounts of lead ion in aqueous medium through the inhibition of isocitrate dehydrogenase (ICDH) in homogeneous solution.
Commercially available ICDH (Sigma Chemical Company, St. Louis, Mo.) typically contains considerable amounts of sulfate that interferes with lead ion inhibition of ICDH. Dialysis of ICDH against low ionic strength phosphate buffer caused loss of its activity, which was restored by addition of Mn^2+.
A glassy carbon rod of 3 mm diameter was wrapped in teflon tubing as working electrode and surrounded with a layer of Pt foil as the counter electrode with a silver wire placed in between as the reference electrode. At least one layer of teflon was inserted between two of the three electrodes. All three electrode surfaces were on the same plane. Tubing was fixed on the top of the coplanar electrode surface with an O-ring, forming a microcell of 100-200 μl in volume.
To the microcell was added in sequence: 100 μl 50 mM pH 8.5 Tris buffer, ca. 0.3-0.4 units ICDH and, after 15 min, 5 μl 25 mM NMP-MS, 5 μl 60 mM NADP. The background current was measured at 0 V. 10 μl of 0.5M isocitrate was added and the current measured again. The difference in the two signals was taken as due to the oxidation of isocitrate catalyzed by ICDH.
To measure lead inhibition of ICDH, lead ion was added to the above solution after addition of ICDH but 15 min prior to the addition of NMP-MS and NADP. The current difference with isocitrate was due to inhibition of ICDH by the added lead. FIG. 3 indicates the sensitivity of the electrode to lead ion concentrations in the submicromolar range.

isocitrate dehydrogenase [3] = biological target: T1, isocitrate dehydrogenase; test: ICDH inhibition by lead in the presence of CoSO4 (Example 8); conditions: 1 mM CoSO4
Description: A major problem in the measurement of lead in blood is the interference by various blood proteins and, as in the majority of clinical samples, the presence of excess amounts of EDTA. The inventors have discovered that lead chelated with EDTA is exchangeable with cobalt(II). As shown in this example, lead Pb(II) is displaced from EDTA by cobalt(II) and detected by its inhibition of isocitrate dehydrogenase (ICDH).
Micromolar concentrations of lead were determined through ICDH inhibition in the presence of 1 mM CoSO4.

isocitrate dehydrogenase [4] = biological target: T1, isocitrate dehydrogenase; test: Effect of temperature on lead inhibition of isocitrate dehydrogenase (Example 9); conditions: for Inhibition rate: 4 μM lead, 10 nM enzyme, 15 min; for inhibition rates: lead concentration not printed at this place
Description: The activity of isocitrate dehydrogenase and its response is affected by several factors.
A solution of isocitrate dehydrogenase (10 nM) was incubated for 15 min at various temperatures between 18° C. and 37° C. and rate of lead inhibition measured. Inhibition rates increased approximately linearly from about 25% to 85% at a lead concentration of 4 μM (FIG. 5).

With `[Pb+2]` [lead ion] the “inhibition of isocitrate dehydrogenase activity” value (isocitrate dehydrogenase [1]) was “do not detectably inhibit isocitrate dehydrogenase activity”, the “% inhibition” value (isocitrate dehydrogenase [2]; 1.89 μM Pb++) was 85.3% and the Current (isocitrate dehydrogenase [2]; 1.89 μM Pb++) was 218 nA. For the same compound, the “% inhibition” value (isocitrate dehydrogenase [2]; 90.9 μM Pb++) was 98.2%, the Current (isocitrate dehydrogenase [2]; 90.9 μM Pb++) was 26 nA and the Inhibition (isocitrate dehydrogenase [3]; 2.4 μM lead) was 24%. The Inhibition (isocitrate dehydrogenase [3]; 4.8 μM lead) was 46%, the Inhibition (isocitrate dehydrogenase [3]; 12 μM lead) was 71% and the Inhibition rate (isocitrate dehydrogenase [4]; 18° C.) was “about 25%”. For the same compound, the inhibition rates (isocitrate dehydrogenase [4]; 18° C.) was 25%, the Inhibition rate (isocitrate dehydrogenase [4]; 37° C.) was about 85% and the inhibition rates (isocitrate dehydrogenase [4]; 37° C.) was “about 85%”.
